Consider 12 compounds from patent publication US8822467B2 (Ligand Pharmaceuticals Inc., priority 2009, dated 2014).

The target of one assay is T1, human CRTH2 (Homo sapiens, UniProt Q9Y5Y4).
T1 construct: expressed in transfected cells
T1 sequence (Q9Y5Y4 1-395): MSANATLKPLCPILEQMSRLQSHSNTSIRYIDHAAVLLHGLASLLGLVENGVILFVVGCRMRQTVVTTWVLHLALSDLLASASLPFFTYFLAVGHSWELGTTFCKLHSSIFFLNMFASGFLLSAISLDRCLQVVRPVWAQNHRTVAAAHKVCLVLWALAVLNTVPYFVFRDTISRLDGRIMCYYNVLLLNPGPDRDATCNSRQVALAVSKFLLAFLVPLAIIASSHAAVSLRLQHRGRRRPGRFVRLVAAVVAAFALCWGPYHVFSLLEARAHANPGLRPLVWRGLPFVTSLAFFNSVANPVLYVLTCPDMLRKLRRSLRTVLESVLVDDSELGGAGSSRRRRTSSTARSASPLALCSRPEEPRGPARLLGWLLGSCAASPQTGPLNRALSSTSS
The assay can be described thus: [35S]GTPγS binding assay (SPA) on membranes from CHO-K1 cells stably expressing human CRTH2, stimulated with 60 nM DHK-PGD2. Type of assay: biochemical. As to conditions: membranes of CHO-K1 cells expressing human CRTH2; 60 nM DHK-PGD2; Table 1; read-out: CRTH2 hGTPγS IC50. The essentials: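 Read-out is scintillation proximity: bound [35S]GTPγS (500 pM, with 10 μM GDP) was counted 4 h after centrifuging a 2 h ambient-temperature incubation. Reactions held 4 μg human CRTH2 CHO-K1 membrane protein, 60 nM DHK-PGD2 agonist and test compounds at increasing concentrations. Buffer: 20 mM HEPES pH 7.4, 10 mM MgCl2, 300 mM NaCl, 0.2% BSA, 1% DMSO.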
For the compound `CN(Cc1ccc(OCC(=O)O)c(-c2cccc(C#N)c2)c1)S(=O)(=O)c1cc(F)cc(F)c1` [Example 97, 2-(3-cyanophenyl)-4-((3,5-difluoro-N-methylphenylsulfonamido)methyl)phenoxyacetic acid], the IC50 was 43 nM.

Still in this assay, the particulars now being: potency class symbols; Table 2; read-out: CRTH2 hGTPγS IC50.
With `CN(Cc1ccc(OCC(=O)O)c(-c2ccc(C#N)s2)c1)S(=O)(=O)c1ccc(F)cc1` [Example 188, 2-(2-cyanothiophen-5-yl)-4-((4-fluoro-N-methylphenylsulfonamido)methyl)phenoxyacetic acid], the IC50 was below 100 nM.
With `COc1ccc(S(=O)(=O)N(C)Cc2ccc(OCC(=O)O)c(-c3cccc(C(F)(F)F)c3)c2)cc1` [Example 121, 2-(3-trifluoromethylphenyl)-4-((4-methoxy-N-methylphenylsulfonamido)methyl)phenoxyacetic acid], the IC50 lay in the range of 100 to 1000 nM.
As for `CN(Cc1ccc(OCC(=O)O)c(-c2cccc(C#N)c2)c1)S(=O)(=O)c1ccc(F)c(F)c1` [Example 63, 2-(3-cyanophenyl)-4-((3,4-difluoro-N-methylphenylsulfonamido)methyl)phenoxyacetic acid], the IC50 was below 100 nM.
Take `CN(Cc1ccc(OCC(=O)O)c(-c2cccc(C#N)c2)c1)S(=O)(=O)c1cc(F)cc(F)c1` [Example 97, 2-(3-cyanophenyl)-4-((3,5-difluoro-N-methylphenylsulfonamido)methyl)phenoxyacetic acid]: the IC50 was below 100 nM.
On to `CN(Cc1ccc(OCC(=O)O)c(-c2cccc(C(F)(F)F)c2)c1)S(=O)(=O)c1ccc(F)cc1` [Example 95, 2-(3-trifluoromethylphenyl)-4-((4-fluoro-N-methylphenylsulfonamido)methyl)phenoxyacetic acid], for which the IC50 was below 100 nM.
Turning to `CN(Cc1ccc(OCC(=O)O)c(-c2cccc(C(F)(F)F)c2)c1)S(=O)(=O)c1ccc2ccccc2c1` [Example 148, 2-(3-trifluoromethylphenyl)-4-((N-methylnaphthalene-2-sulfonamido)methyl)phenoxyacetic acid], the IC50 was in the range of 100 to 1000 nM.
As for `CN(Cc1ccc(OCC(=O)O)c(-c2ccc3ncn(C)c3c2)c1)S(=O)(=O)c1ccc(F)cc1` [Example 184, 2-(3-methyl-3H-benzo[d]imidazol-5-yl)-4-((4-fluoro-N-methylphenylsulfonamido)methyl)phenoxyacetic acid], the IC50 lay within 1000 to 10000 nM.
For the compound `COc1ccc(S(=O)(=O)N(C)Cc2ccc(OCC(=O)O)c(-c3cccc(C#N)c3)c2)cc1` [Example 104, 2-(3-cyanophenyl)-4-((4-methoxy-N-methylphenylsulfonamido)methyl)phenoxyacetic acid], the IC50 is 100 to 1000 nM.
As to `CN(Cc1ccc(OCC(=O)O)c(-c2cc(F)ccc2F)c1)S(=O)(=O)c1ccc(F)cc1` [Example 118, 2-(2,5-difluorophenyl)-4-((4-fluoro-N-methylphenylsulfonamido)methyl)phenoxyacetic acid], the IC50 lay in the range of 100 to 1000 nM.
Consider `CN(Cc1ccc(OCC(=O)O)c(-c2ccc(S(C)(=O)=O)cc2)c1)S(=O)(=O)c1ccc(F)cc1` [Example 124, 2-(4-methylsulfonylphenyl)-4-((4-fluoro-N-methylphenylsulfonamido)methyl)phenoxyacetic acid], for which the IC50 was 100 to 1000 nM.
As to `CN(Cc1ccc(OCC(=O)O)c(-c2cccc(C(F)(F)F)c2)c1)S(=O)(=O)Cc1ccccc1` [Example 159, 2-(3-trifluoromethylphenyl)-4-((N-methylbenzylsulfonamido)methyl)phenoxyacetic acid], the IC50 lay within 1000 to 10000 nM.
For `CN(Cc1ccc(OCC(=O)O)c(-c2ccc(F)c(S(C)(=O)=O)c2)c1)S(=O)(=O)c1ccc(F)cc1` [Example 28, 2-((4-fluoro-3-(methylsulfonyl)phenyl)-4-((4-fluoro-N-methylphenylsulfonamido)methyl)phenoxy)acetic acid], the IC50 is below 100 nM.

Broadly, the IC50 is the concentration needed to halve the response being measured.
